We go through three compounds from patent EP4609859A1, “INHIBITORS OF THE GENE SMPD1 FOR THE TREATMENT OF SPINAL MUSCULAR ATROPHY” (Universidad Pablo de Olavide, priority 2024, dated 2025).

One series deals with SMN-1. As to the kind of experiment: SMN-1 level by head fluorescence in C. elegans strain mCherry::smn-1 (PHX2635) after drug treatment. Conditions: for level of SMN-1, repeated experiments on different days: Fig. 11, vs non-treated animals. The class given is in vivo. The text has this: C. elegans strains were cultivated under standard conditions (Stiernagle, 2006). The strains used are as follows: PHX2635: smn-1(syb2635); BN1158: bqSi1152[pBN521(unc-119(+) eft-3p::Frt::mCh::his-58::Frt::UPRT)]II; bqSi577[pBN306(unc-119(+) myo-2p::GFP)] IV. unc-119(ed9)III . The Escherichia coli strains used were: OP50 and HT115.
The strain PHX2635: smn-1(syb2635) was generated by CRISPR technology, we introduced the coding sequence of the fluorescent protein m-Cherry upstream of the TAA stop codon of the C. elegans SMN1 homologous gene, smn-1, as indicated in the sequence: [formula]
RNAi feeding was performed as described (Kamath and Ahringer, 2003). RNAi clones belong to the Aringher gene library were used: JA:C41G7.1 (smn-1), JA:T18D3.7 (tsct-1), JA:WO3G1.7 (asm-3), JA:C07A12.7 (C07A12.7), JA:C10E2.3 (hda-4), JA:K09A9.4 (usp-33), JA:R01B10.1 (cpi-2), JA:K08B4.6 (cpi-1), JA:K06A4.3 (gsnl-1), JA:F23H11.4 (F23H11.4), JA:T18H9.7 (pacs-1), JA:C41G7.1 (smn-1) and MV_SV: mv_ZK455.4 (asm-2) from Marc Vidal's gene library (Kim et al., 2005). […] For the drug assay, NGM plates were prepared at the indicated concentrations and the respective vehicle was used as a control, then proceeded as in the RNAi assay.
L4 worms were mounted in a coverslip with a 2% agarose pad. C. elegans confocal images were acquired using a Nikon A1R microscope equipped with a 60x Plan Apo lens of Numerical Aperture 1.4. Twelve pictures were taken for each worm to be integrated in a Z image. […] Laser intensity, gain and pixel scan speed remained constant along all sets of experiments.
For image analysis, we used FIJI software. The experimentalist drew manually a ROI containing between the second pharynx bulb and the mouth of the nematode. Within this area, mCherry expression was detected using an intensity threshold that remained constant along all images. This minimum intensity level was defined by the experimenter. Within the thresholded volume, we measured the integrated density using the plugin 3D object counter (Bolte and Cordelières, 2006). […]

The next series has as its system nematode development. As to the kind of experiment: Visible effect of drug treatment on nematode development. The class given is in vivo, C. elegans. Conditions: at the concentrations tested in the SMN-1 assay. As to the method: RNAi feeding was performed as described (Kamath and Ahringer, 2003). RNAi clones belong to the Aringher gene library were used: JA:C41G7.1 (smn-1), JA:T18D3.7 (tsct-1), JA:WO3G1.7 (asm-3), JA:C07A12.7 (C07A12.7), JA:C10E2.3 (hda-4), JA:K09A9.4 (usp-33), JA:R01B10.1 (cpi-2), JA:K08B4.6 (cpi-1), JA:K06A4.3 (gsnl-1), JA:F23H11.4 (F23H11.4), JA:T18H9.7 (pacs-1), JA:C41G7.1 (smn-1) and MV_SV: mv_ZK455.4 (asm-2) from Marc Vidal's gene library (Kim et al., 2005). For smn-1 expression assays, gravid hermaphrodites were transferred to empty plasmid pL4440 or RNAi plates, incubated at 20°C for 48 hours and the next generation was analyzed at the L4 stage. For the drug assay, NGM plates were prepared at the indicated concentrations and the respective vehicle was used as a control, then proceeded as in the RNAi assay.

Series [1] has as its system SMN protein. As to the kind of experiment: Western blot of SMN in human SMA patient fibroblasts. The class given is cell-based. The following applies: SMAII and SMAI fibroblasts, 5µM, 10µM, or 25µM, 24 h. In general terms: A western blot detects proteins with antibodies after separation by electrophoresis.
Description: Fibroblasts were maintained in Eagle's Minimum Essential Medium (MEM) (Sigma) supplemented with 15% (v/v) non-inactivated fetal bovine serum (FBS) (Gibco), 0.5M of L-Glutamine (Gibco), 1% (v/v) non-essential amino acids, and 20µg/ml of Penicillin-Streptomycin (Gibco). For western blot analysis, cells were plated at 3,000-4,000 cells/cm2 in 35mm dishes and cultured in supplemented MEM for 24 h. For immunofluorescence experiments, 3,000 cells/well were plated in collagen-coated 1cm2 glass coverslips placed into four-well dishes and fixed in 4% paraformaldehyde (Sigma) in PBS.
Western blots were performed as previously described (Gou-Fabregas et al., 2009). Cell lysates were resolved in sodium dodecyl-sulfate polyacrylamide (SDS-PAGE) gels and transferred onto polyvinylidene difluoride (PVDF) Immobilon-P transfer membranes (Millipore, Burlington, MA, USA) using an Amersham Biosciences semidry Trans-Blot (Buckinghamshire, UK). Membranes were blotted with: anti-SMN (1: 5,000, Cat. No. 610646, BD Transduction Laboratories, Franklin Lakes, NJ, USA) and anti-SMPD1 (1: 300, Cat. No. 14609-1-AP, ProteinTech, Manchester, UK). To control the specific protein content per lane, membranes were reproved with anti-α-tubulin antibody (1: 50,000, Cat. No. T5168, Sigma). […]
Series [2] addresses T1, SMPD1 (Homo sapiens, UniProt P17405).
T1 construct: host or cells: human SMA type 2 patient fibroblasts (SMAII)
T1 sequence (P17405 47-631): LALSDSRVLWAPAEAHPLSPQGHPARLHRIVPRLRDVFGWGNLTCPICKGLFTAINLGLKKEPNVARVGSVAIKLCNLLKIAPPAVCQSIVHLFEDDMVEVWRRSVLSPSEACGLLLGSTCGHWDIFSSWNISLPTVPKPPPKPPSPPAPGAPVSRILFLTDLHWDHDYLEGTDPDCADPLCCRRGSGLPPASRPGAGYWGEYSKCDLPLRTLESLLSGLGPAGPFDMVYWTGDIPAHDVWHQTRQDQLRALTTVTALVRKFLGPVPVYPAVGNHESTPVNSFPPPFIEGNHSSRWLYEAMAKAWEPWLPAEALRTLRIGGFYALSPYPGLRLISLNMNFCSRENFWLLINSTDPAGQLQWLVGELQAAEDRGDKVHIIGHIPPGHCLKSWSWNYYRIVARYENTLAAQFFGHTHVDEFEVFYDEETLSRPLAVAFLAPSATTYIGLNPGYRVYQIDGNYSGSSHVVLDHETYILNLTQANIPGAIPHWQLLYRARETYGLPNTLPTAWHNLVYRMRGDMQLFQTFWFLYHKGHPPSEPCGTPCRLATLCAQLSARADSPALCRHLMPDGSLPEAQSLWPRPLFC
As to the kind of experiment: Immunofluorescence (CTCF) of SMPD1 in human SMA fibroblasts. Conditions: SMAII fibroblasts, 20µM, 24 h; untreated 105.8±5.64; p<0.0001. The class given is cell-based. As to the method:
Two human fibroblasts cell lines from SMA patients (GM03813, SMA type 2 patient, SMAII; and GM09677, SMA type 1 patient, SMAI) and one healthy control (GM03814, Control) were obtained and cultured following the manufacturer instructions. Fibroblasts were maintained in Eagle's Minimum Essential Medium (MEM) (Sigma) supplemented with 15% (v/v) non-inactivated fetal bovine serum (FBS) (Gibco), […] of L-Glutamine (Gibco), 1% (v/v) non-essential amino acids, and 20µg/ml of Penicillin-Streptomycin (Gibco). For western blot analysis, cells were plated at 3,000-4,000 cells/cm2 in 35mm dishes and cultured in supplemented MEM for 24 h. […]
(§1) Cultured cells were fixed with 4% paraformaldehyde (Sigma) for 10 min and cold methanol (Sigma) for 30 min more. […] Quantification of fluorescence intensity was performed blinded, using the NIH ImageJ software (Schindelin et al., 2012). Using phase contrast images, the cell perimeter was manually delimited and transferred to the corresponding fluorescence images. The Integrated Density (IntDen) was measured in the selected area of the cell. Three non-fluorescent surrounding regions were measured to set up the background readings. The fluorescence intensity was calculated using the following formula: Corrected Total Cell Fluorescence (CTCF) = IntDen (sum of the values of the pixels in the selection) - (area of the cell x mean fluorescence of the background).

Series [3] deals with SMN protein. As to the kind of experiment: Western blot of SMN in iPSC-differentiated human SMA MNs. The class given is cell-based. Conditions: remaining doses of 5µM, 10µM, 20µM in SMAI and SMAII MNs, 24 h. An excerpt: (§2) Three human iPSCs lines were used in the present work. The GM23411*B (Coriell Institute) iPSC cell line obtained from a healthy […] individual was used as control. The GM23240*B (Coriell Institute) iPSCs obtained from a fibroblast cell line of a […] SMA type 2 patient (2 copies SMN2; deletion exon7-8 in SMN1) was used as SMAII condition. SMAII patient was previously classified as SMA type 1, but several data supported re-classification to SMA type 2. The CS84iSMA-nxx (Cedar Sinai, Los Angeles, USA) iPSCs obtained from a lymphoblast cell line of a […] SMA type 1 patient (2 copies SMN2; deletion exon7-8 in SMN1) was used as SMAI condition.
Human iPSCs were differentiated to MNs as previously described (de la Fuente et al., 2020; Du et al., 2015). Cell lines were cultured and expanded on Geltrex (Sigma)-coated plates in Essential 8 medium (Gibco). Neuroepithelial cells and MN progenitors were generated following the established protocol. To induce MN differentiation, MN progenitors were detached with Accutase (Gibco) and cultured in suspension in MN induction medium (DMEM/F12: NBM plus 1:1 supplemented with B27, L-glutamine [all from Gibco], 0.1mM ascorbic acid [Sigma], 3µM CHIR99021; 2µM SB431512, 2µM DMH1 [all from Cayman, Ann Harbor, MI, USA], 0.5µM retinoic acid [Sigma], and 0.1µM purmorphamine [Cayman]). […]

Series [4] concerns the target T1, SMPD1. As to the kind of experiment: Immunofluorescence (CTCF) of SMPD1 in differentiated human SMA MNs. The class given is cell-based. The following applies: SMAI MNs, 10µM, 24 h; untreated 126.7±5.74; p<0.0001.
Description: as §2, with “SMAI condition. […]” for “SMAI condition.”
as §1

For the compound `CN(C)CCCN1c2ccccc2CCc2ccc(Cl)cc21` [clomipramine], the “SMN-1 level after treatment exclusively during the adult stage” value with SMN-1 (100 µM, 48 hours, started at adulthood, vs untreated) is given as “significant increase”. For the same compound, the “level of SMN-1, repeated experiments on different days” value in the series with SMN-1 (100 µM) is on record as “statistically significant increase”. Moreover, the “visible effect on nematode development” value with nematode development is listed as “did not show a visible negative effect”. Besides, the SMN protein level entry in the series on SMN protein [1] was “did not increase SMN protein level”. The “SMPD1 relative fluorescence in cell soma (CTCF)” value on SMPD1 [2] is given as 56.59±4.03; on SMPD1 [4], 91.62±3.64. Besides, the “SMN protein compared to untreated control” value with SMN protein [3] is given as “No significant differences”.

Turning to `CNCCCN1c2ccccc2CCc2ccccc21` [desipramine], the “level of SMN-1, repeated experiments on different days” value with SMN-1 (500 µM) was “statistically significant increase”. The “visible effect on nematode development” value in the series on nematode development is “delay in nematode development”.

Regarding `CCOC(=O)C1=C(COCCN)NC(C)=C(C(=O)OC)C1c1ccccc1Cl` (stereo not shown) [amlodipine], the “visible effect on nematode development” value with nematode development is “delay in nematode development”.
